Measured values as given in publication PMC11355573, “A New Renieramycin T Right-Half Analog as a Small Molecule Degrader of STAT3” (Marine Drugs, 2024).

Columns and labels:
[1] = tested on: H460 cells; settings: cited from earlier work
[2] = tested on: H292 cells; test: MTT cell viability assay (cytotoxicity); format: cell-based, human; settings: Homo sapiens, NCI-H292, 24 h, read-out: IC50 ± SD H292
Protocol: (§1) NSCLCs H292 and H460 were treated with various concentrations of derivatives of the RT right-half analog for 24 h. […] However, the IC50 values for DH_17, DH_20, DH_23, and DH_26 in H460 cells were greater than 100 μM. TM-(−)-18 was identified as a potent compound in a previous study. The structure of TM-(−)-18 was present in Figure 1A. […] To assess the selectivity of DH_28, DH_30, DH_31, and TM-(−)-18 in lung cancer cells, non-tumorigenic epithelial cell lines derived from human bronchial epithelial cells (BEAS-2B) were treated with DH_28, DH_30, DH_31, and TM-(−)-18 at various concentrations for 24 h.
(§2) MTT assay was conducted to ascertain cell viability in the presence of DH_17, DH_20, DH_23, DH_26, DH_28, DH_30, DH_31, or TM-(–)-18. H292 and H460 cells (1.0 × 10^4 cells per well) were seeded in 96-well plates. Following overnight incubation, the cells were treated with different concentrations of RT right–half analogs (0–100 μM) for 24 h at 37 °C. Subsequently, cell viability was assessed using MTT assay, following the manufacturers’ protocols. The optical density was measured at 570 nm using a CLARIOStar microplate reader (BMG Labtech, Ortenberg, Germany).

[3] = tested on: H460 cells; test: MTT cell viability assay (cytotoxicity); format: cell-based, human; settings: Homo sapiens, NCI-H460, 24 h, read-out: IC50 ± SD H460
Protocol: as §1, §2

| Molecule | H460 cell motility [1] | IC50 [2] [µM] | IC50 [3] [µM] |
| --- | --- | --- | --- |
| 22-O-(N-Boc-L-glycine) ester of RM | inhibited | – | – |
| COc1c(C)cc2c(c1O)[C@@H]1CN(Cc3ccccn3)[C@@H](C#N)[C@H](C2)N1C [DH_17, (1R,4R,5S)-10-hydroxy-9-methoxy-8,11-dimethyl-3-(pyridin-2-ylmethyl)-1,2,3,4,5,6-hexahydro-1,5-epiminobenzo[d]azocine-4-carbonitrile] | – | 20.5 ± 3.69 | > 100 |
| COc1c(C)cc2c(c1O)[C@@H]1CN(Cc3cccnc3)[C@@H](C#N)[C@H](C2)N1C [DH_20, (1R,4R,5S)-10-hydroxy-9-methoxy-8,11-dimethyl-3-(pyridin-3-ylmethyl)-1,2,3,4,5,6-hexahydro-1,5-epiminobenzo[d]azocine-4-carbonitrile] | – | 21.5 ± 3.77 | > 100 |
| COc1c(C)cc2c(c1O)[C@@H]1CN(Cc3ccncc3)[C@@H](C#N)[C@H](C2)N1C [DH_23, (1R,4R,5S)-10-hydroxy-9-methoxy-8,11-dimethyl-3-(pyridin-4-ylmethyl)-1,2,3,4,5,6-hexahydro-1,5-epiminobenzo[d]azocine-4-carbonitrile] | – | 17.5 ± 3.08 | > 100 |
| COc1c(C)cc2c(c1O)[C@@H]1CN(Cc3cncs3)[C@@H](C#N)[C@H](C2)N1C [DH_26, (1R,4R,5S)-10-hydroxy-9-methoxy-8,11-dimethyl-3-(thiazol-5-ylmethyl)-1,2,3,4,5,6-hexahydro-1,5-epiminobenzo[d]azocine-4-carbonitrile] | – | 7.18 ± 2.39 | > 100 |
